The target in one assay is mSTING-CTD (Mus musculus (Mouse), UniProt Q3TBT3). The experiment in a line: Mouse STING protein FP competition concentration response assay. The class given is binding. The procedure: (§1) A validated STING ligand, such as c-di-GMP, which is labeled with a read-out signal (e.g., a fluorescence signal such as fluorescein), is mixed with STING-CTD (e.g., mouse STING-CTD or human STING-CTD) with or without the presence of a compound of the present application. Changes in the read-out signal are measured (e.g., by fluorescence anisotropy) to determine the binding of the compound to STING-CTD.
Fluorescein labeled c-di-GMP was mixed with mSTING-CTD with or without the presence of a compound of the present application in PBS in black 384-well plates (10 μL per well). The fluorescence anisotropy was determined on a PerkinElmer EnVisions multi-mode plate reader. The plate can be read immediately after mixing the reagents or after a few hours without change of signals.
• 1) 6×his-sumo-mSTING (Supplier: HDB) • 2) 2′-Fluo-AHC-c-di GMP (BIOLOG #F009) • 3) 23-cGAMP (BIOLOG #C161) • 4) DMXAA (InvivoGen #tlrl-dmx) • 5) DMSO (Sigma. #D5879-100 mL) • 6) 10×PBS(HDB #MCP-020) • 7) Assay plate, 384-well black plate, solid black bottom (Greiner #784076) • 8) Compound dilution intermediate plate, 384 LDV plate (Labcyte #LP-0200) • 9) Liquid handler, ECHO550 (Labcyte) • 10) Liquid handler, Bravo (Aglient) • 11) Reader, Envision (PerkinElmer) • 12) Centrifuge (Eppendorf) • 13) Multichannel Pipette (Raining) • 14) 10 ml Reservoir (Corning) • 15) 15 ml centrifuge tube (Corning) • 16) Adhesive Plate seals (BioRad) Compound Preparation • a) Containers of each compound were centrifuged at 1000 rpm for 5 min. • b) Compounds were dissolved in DMSO at 30 mM. • c) Compounds were sufficiently vortexed, and centrifuged at 1000 rpm for 1 min. • d) 16 uL of the compound solution was transferred into a LDV Compound Plate. • e) 2-fold serial dilutions of the compound solution were made with DMSO, and 14 concentrations were made in the 384-well LDV Compound Plate. • f) The LDV plate was spun at 1000 rpm for 60 sec and sealed with foil (stored at −20° C. if not used immediately). • g) 335 nL of each compound from the LDV Compound Plate was transferred to Assay Plate (ECHO550). Probe Preparation • a) 200 uM probe stock (2′-Fluo-AHC-c-diGMP) was diluted by dd2O to 6 uM working concentration. • b) 10-12 uL 6 uM working solution of probe was transferred into the LDV plate. • c) 50 nL per well 6 uM working solution of probe was transferred from the LDV plate to each well of the empty Assay Plate (Greiner 784076) by ECHO550 Buffer mode. • d) Probe final concentration was 30 nM when assay system was 10 uL. • e) The Assay Plate was spun at 1000 rpm for 1 min. Compound Addition • a) After the LDV Compound Plate was prepared, 100 nL compound (ECHO550 DMSO mode) was transferred from the LDV Compound Plate into the Assay Plate (Greiner 784076) containing 50 nL probe in each well according to the Assay Plate layout. • b) DMSO final concentration was 1% when assay system was 10 uL. • c) The Assay Plate was spun at 1000 rpm for 1 min. Protein Addition • a) Aliquot of 6×his-sumo-mSTING protein was thawed on ice, briefly to generate uniform solution. • b) 66 uM stock protein was diluted in 1×PBS assay buffer to generate 8 uM final solutions. • c) For test compound and ZPE wells, 10 μL per well of 8 uM protein solutions was added into the Assay Plate containing both the probe and test compounds or DMSO using multichannel pipette. • d) For HPE wells, 10 µL/well of 1×PBS assay buffer instead of protein was added into the Assay Plate containing both the probe and DMSO using multichannel pipette. • e) The Assay Plate was spun at 1000 rpm for 1 min. • f) The Assay Plate was incubated at r.t. for 10-20 min.
(§2) The EnVision plate reader was used to record the FA value of each well immediately after mixing the reagents or after a few hours without change of signals.
(§3) The raw data and calculated data (Fluorescence anisotropy (FA)) was exported from the EnVision reader. […]

Another assay deals with hSTING-CTD (Homo sapiens (Human), UniProt Q86WV6). The experiment in a line: Human STING protein FP competition concentration response assay. The format is binding. The method, then: as §1
Fluorescein labeled c-di-GMP, a validated STING ligand, was mixed with recombinant hSTING-CTD in a homogenous assay format with or without the presence of a compound of the present application (titrated) in PBS in black 384-well plates (10 μL per well). The fluorescence anisotropy was determined on a PerkinElmer EnVisions multi-mode plate reader. The plate can be read immediately after mixing the reagents or after a few hours without change of signals.
• 1) hSTING (Supplier: HDB) • 2) 2′-Fluo-AHC-c-di GMP (BIOLOG #F009) • 3) 2′3′-cGAMP (BIOLOG #C161) • 4) DMXAA (InvivoGen #tlrl-dmx) • 5) DMSO (Sigma, #D5879-100 mL) • 6) 10×PBS(HDB #MCP-020) • 7) Assay plate, 384-well black plate, solid black bottom (Greiner #784076) • 8) Compound dilution intermediate plate, 384 LDV plate (Labcyte #LP-0200) • 9) Liquid handler, ECHO550 (Labcyte) • 10) Liquid handler, Bravo (Aglient) • 11) Reader, Envision (PerkinElmer) • 12) Centrifuge (Eppendorf) • 13) Multichannel Pipette (Raining) • 14) 10 ml Reservoir (Corning) • 15) 15 ml centrifuge tube (Corning) • 16) Adhesive Plate seals (BioRad) Compound Preparation • a) Containers of each compound were centrifuged at 1000 rpm for 5 min. • b) Compounds were dissolved in DMSO at 30 mM. • c) Compounds were sufficiently vortexed, and centrifuged at 1000 rpm for 1 min. • d) 16 uL of the compound solution was transferred into a LDV Compound Plate. • e) 2-fold serial dilutions of the compound solution were made with DMSO, and 14 concentrations were made in the 384-well LDV Compound Plate. • f) The LDV plate was spun at 1000 rpm for 60 sec and sealed with foil (stored at −20° C. if not used immediately). • g) 335 nL of each compound from the LDV Compound Plate was transferred to Assay Plate (ECHO550). Probe Preparation • a) 200 uM probe stock (2′-Fluo-AHC-c-diGMP) was diluted by ddH2O to 6 uM working concentration. • b) 10-12 uL 6 uM working solution of probe was transferred into the LDV plate. • c) 50 nL per well 6 uM working solution of probe was transferred from the LDV plate to each well of the empty Assay Plate (Greiner 784076) by ECHO550 Buffer mode. • d) Probe final concentration was 30 nM when assay system was 10 uL. • e) The Assay Plate was spun at 1000 rpm for 1 min. Compound Addition • a) After the LDV Compound Plate was prepared, 335 nL compound (ECHO550 DMSO mode) was transferred from the LDV Compound Plate into the Assay Plate (Greiner 784076) containing 50 nL probe in each well according to the Assay Plate layout. • b) DMSO final concentration was 3.35% when assay system was 10 uL. • c) The Assay Plate was spun at 1000 rpm for 1 min. Protein Addition • a) Aliquot of hSTING protein was thawed on ice, briefly to generate uniform solution. • b) 55 uM stock protein was diluted in 1×PBS assay buffer to generate 10 uM final solutions. • c) For test compound and ZPE wells, 10 μL per well of 10 uM protein solutions was added into the Assay Plate containing both the probe and test compounds or DMSO using multichannel pipette. • d) For HPE wells, 10 μL/well of 1×PBS assay buffer instead of protein was added into the Assay Plate containing both the probe and DMSO using multichannel pipette. • e) The Assay Plate was spun at 1000 rpm for Imin. • f) The Assay Plate was incubated at r.t. for 10-20 min.
as §2, §3

Chain of mSTING-CTD (Q3TBT3 134-378): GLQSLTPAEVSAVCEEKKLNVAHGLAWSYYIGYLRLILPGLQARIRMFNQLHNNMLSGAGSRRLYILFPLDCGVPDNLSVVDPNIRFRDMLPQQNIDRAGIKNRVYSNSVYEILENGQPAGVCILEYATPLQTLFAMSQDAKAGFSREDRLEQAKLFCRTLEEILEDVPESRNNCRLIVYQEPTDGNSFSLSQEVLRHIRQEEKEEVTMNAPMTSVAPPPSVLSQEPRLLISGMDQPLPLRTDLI
Chain of hSTING-CTD (Q86WV6 135-379): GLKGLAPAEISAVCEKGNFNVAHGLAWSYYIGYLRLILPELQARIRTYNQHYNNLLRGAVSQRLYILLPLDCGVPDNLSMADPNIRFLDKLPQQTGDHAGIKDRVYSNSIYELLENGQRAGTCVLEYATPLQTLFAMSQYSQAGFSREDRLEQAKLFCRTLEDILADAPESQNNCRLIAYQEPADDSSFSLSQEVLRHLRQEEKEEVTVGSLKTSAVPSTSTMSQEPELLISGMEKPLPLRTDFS

As to `Cc1cccc2c(=O)c3ccccc3n(CC(=O)O)c12` [Compound 7], the IC50 on mSTING-CTD was 10 to 50 µM; at hSTING-CTD, above 1000 µM.

With `O=C(O)Cn1c2ccccc2c(=O)c2cccc(Cl)c21` [Compound 8], the IC50 on mSTING-CTD was 10 to 50 µM; on hSTING-CTD it was above 1000 µM.

Consider `O=C(O)Cn1c2ccccc2c(=O)c2ccc3c(c21)CCCC3` [Compound 9], for which the values for the IC50 on mSTING-CTD and on hSTING-CTD were below 10 µM and 500 to 1000 µM, respectively.

For the compound `Cc1ccc2c(c1)c(=O)c1ccccc1n2CC(=O)O` [Compound 10], the IC50 was 10 to 50 µM on mSTING-CTD and above 1000 µM at hSTING-CTD.

As to `Cc1ccc2c(=O)c3cccc(C)c3n(CC(=O)O)c2c1` [Compound 11], the half-maximal inhibitory concentration (IC50) on mSTING-CTD is below 10 µM; at hSTING-CTD, 500 to 1000 µM.

For `Cc1ccc2c(=O)c3cccc(Cl)c3n(CC(=O)O)c2c1` [Compound 12], the concentration for half-maximal inhibition (IC50) at mSTING-CTD was below 10 µM; at hSTING-CTD, 500 to 1000 µM.

`Cc1ccc2c(=O)c3ccc(C)cc3n(CC(=O)O)c2c1` [Compound 15]: the half-inhibitory concentration (IC50) is 10 to 50 µM at mSTING-CTD and above 1000 µM at hSTING-CTD.

On mSTING-CTD, `Cc1ccc2c(=O)c3c(Cl)cccc3n(CC(=O)O)c2c1` [Compound 16] displayed an IC50 of 10 to 50 µM.

Turning to `Cc1ccc2c(=O)c3ccc(Cl)cc3n(CC(=O)O)c2c1` [Compound 17], the IC50 was in the range of 10 to 50 µM at mSTING-CTD and 500 to 1000 µM on hSTING-CTD.

The compound `O=C(O)Cn1c2ccccc2c(=O)c2ccc(Br)cc21` [Compound 18] gave an IC50 on mSTING-CTD of 10 to 50 µM.

As for `Cc1ccc2c(=O)c3ccccc3n(CC(=O)O)c2c1Cl` [Compound 19], the concentration for half-maximal inhibition (IC50) is 10 to 50 µM at mSTING-CTD and above 1000 µM at hSTING-CTD.

On to `O=C(O)Cn1c2ccccc2c(=O)c2c(Br)cccc21` [Compound 20], for which the IC50 on mSTING-CTD fell in the range of 50 to 100 µM.

Regarding `O=C(O)Cn1c2ccccc2c(=O)c2cc(Br)ccc21` [Compound 21], the half-maximal inhibitory concentration (IC50) at mSTING-CTD is above 100 µM.

In the case of `O=C(O)Cn1c2ccccc2c(=O)c2cc(C#Cc3ccccc3)ccc21` [Compound 22], the IC50 fell in the range of 10 to 50 µM on mSTING-CTD and 500 to 1000 µM on hSTING-CTD.

Consider `O=C(O)Cn1c2ccccc2c(=O)c2cc(CCc3ccccc3)ccc21` [Compound 23], for which the half-maximal inhibitory concentration (IC50) on mSTING-CTD was 10 to 50 µM; on hSTING-CTD, 100 to 500 µM.

`O=C(O)Cn1c2ccccc2c(=O)c2ccc(C#Cc3ccccc3)cc21` [Compound 25] yielded an IC50 on mSTING-CTD of 10 to 50 µM.

As to `O=C(O)Cn1c2ccccc2c(=O)c2ccc(CCc3ccccc3)cc21` [Compound 26], the values for the IC50 on mSTING-CTD and at hSTING-CTD were below 10 µM and 500 to 1000 µM, respectively.

Regarding `Cc1c(CCc2ccccc2)ccc2c(=O)c3ccccc3n(CC(=O)O)c12` [Compound 27], the IC50 at mSTING-CTD is 50 to 100 µM; at hSTING-CTD, above 1000 µM.

Turning to `Cc1c(C2=CCCCC2)ccc2c(=O)c3ccccc3n(CC(=O)O)c12` [Compound 28], the half-maximal inhibitory concentration (IC50) on mSTING-CTD was in the range of 10 to 50 µM; at hSTING-CTD, 500 to 1000 µM.

With `Cc1ccc2c(=O)c3ccc(Cl)c(Cl)c3n(CC(=O)O)c2c1` [Compound 29], the results for the half-maximal inhibitory concentration (IC50) at mSTING-CTD and at hSTING-CTD were 10 to 50 µM and 100 to 500 µM, respectively.

Take `COc1cccc2c1c(=O)c1ccc(C)cc1n2CC(=O)O` [Compound 32]: the IC50 at mSTING-CTD was above 100 µM.

The compound `Cc1ccc2c(=O)c3ccc(F)cc3n(CC(=O)O)c2c1` [Compound 33] displayed an IC50 at mSTING-CTD of 10 to 50 µM.

As to `COc1ccc2c(=O)c3ccc(C)cc3n(CC(=O)O)c2c1` [Compound 34], the concentration for half-maximal inhibition (IC50) on mSTING-CTD is 10 to 50 µM; on hSTING-CTD it was above 1000 µM.

Turning to `COc1ccc2c(=O)c3c(C)cccc3n(CC(=O)O)c2c1` [Compound 35], on mSTING-CTD, the IC50 lay within 10 to 50 µM.

The compound `Cc1ccc2c(=O)c3c(F)cccc3n(CC(=O)O)c2c1` [Compound 36] gave an IC50 on mSTING-CTD of 10 to 50 µM.

`CC(C)(C)c1ccc2c(=O)c3ccc(Cl)c(Cl)c3n(CC(=O)O)c2c1` [Compound 47]: the IC50 at mSTING-CTD was 10 to 50 µM; on hSTING-CTD, below 100 µM.

For `Cc1ccc2c(=O)c3ccc(Br)cc3n(CC(=O)O)c2c1` [Compound 53], the IC50 at mSTING-CTD fell in the range of 10 to 50 µM; at hSTING-CTD, 100 to 500 µM.

As to `O=C(O)Cn1c2cc(NC3CCCCC3)ccc2c(=O)c2ccc(Cl)c(Cl)c21` [Compound 59], the IC50 on mSTING-CTD is 10 to 50 µM; at hSTING-CTD, below 100 µM.

On to `O=C(O)Cn1c2cc(N3CCOCC3)ccc2c(=O)c2ccc(Cl)c(Cl)c21` [Compound 60], for which the IC50 at mSTING-CTD was 10 to 50 µM; on hSTING-CTD, below 100 µM.

In the case of `O=C(O)Cn1c2cc(N3CCCCC3)ccc2c(=O)c2ccc(Cl)c(Cl)c21` [Compound 61], the results for the IC50 at mSTING-CTD and on hSTING-CTD were 10 to 50 µM and below 100 µM, respectively.

Regarding `CC1(C)CCC=C(c2ccc3c(c2)c(=O)c2ccc(Cl)c(Cl)c2n3CC(=O)O)C1` [Compound 67], the values for the IC50 at mSTING-CTD and at hSTING-CTD were above 100 µM and 500 to 1000 µM, respectively.

Turning to `Cc1cccc(-c2ccc3c(c2)c(=O)c2ccc(Cl)c(Cl)c2n3CC(=O)O)c1` [Compound 68], the half-inhibitory concentration (IC50) was 10 to 50 µM at mSTING-CTD and below 100 µM at hSTING-CTD.
